Experimental data published in publication PMC9570088, “Phytochemicals with Chemopreventive Activity Obtained from the Thai Medicinal Plant Mammea siamensis (Miq.) T. Anders.: Isolation and Structure Determination of New Prenylcoumarins with Inhibitory Activity against Aromatase” (International Journal of Molecular Sciences, 2022).
Entries after “also recorded” stand apart in the source; their conditions may differ.

Experiments:
[1] = target: T1, human recombinant aromatase (Homo sapiens, UniProt P11511); experiment: Inhibitory effects against human recombinant aromatase (DBF fluorescence assay); assay type: biochemical; settings: substrate DBF; mean, N = 3
T1 construct: purchased BD Biosciences (Heidelberg, Germany)
T1 sequence (P11511 1-503): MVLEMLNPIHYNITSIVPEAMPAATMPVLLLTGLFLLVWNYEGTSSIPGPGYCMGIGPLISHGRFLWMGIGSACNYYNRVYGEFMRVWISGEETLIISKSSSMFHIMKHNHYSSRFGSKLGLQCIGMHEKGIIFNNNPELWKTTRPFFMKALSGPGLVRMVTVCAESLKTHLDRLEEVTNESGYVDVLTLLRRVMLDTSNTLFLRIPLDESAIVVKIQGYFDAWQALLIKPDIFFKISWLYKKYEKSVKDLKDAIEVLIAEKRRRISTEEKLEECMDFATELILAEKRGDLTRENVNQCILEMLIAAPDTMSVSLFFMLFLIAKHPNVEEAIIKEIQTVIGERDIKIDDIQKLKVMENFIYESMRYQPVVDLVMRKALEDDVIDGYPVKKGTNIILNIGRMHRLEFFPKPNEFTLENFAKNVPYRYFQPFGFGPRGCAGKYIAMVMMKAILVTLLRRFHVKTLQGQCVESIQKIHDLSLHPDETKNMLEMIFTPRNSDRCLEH
Method: Dibenzylfluorescein (DBF) and human CYP19 + P450 reductase SUPERSOMES (human recombinant aromatase) were purchased from BD Biosciences (Heidelberg, Germany) and testosterone from Tokyo Chemical Industry Co., Ltd. (Tokyo, Japan). The other chemicals used in this study were purchased from Wako Pure Chemical Industries, Co., Ltd. (Osaka, Japan).
The experiments were performed according to a previously described method. Briefly, a test sample was dissolved in dimethyl sulfoxide (DMSO), and the solution was diluted with potassium phosphate buffer (50 mM, pH 7.4) containing MgCl2 (0.5 mM) to obtain the test sample solution (concentration of DMSO: 2%). An enzyme/substrate solution in the buffer (20 µL, 1.6 µM DBF, 8 nM human recombinant aromatase) and the test sample solution (20 µL) were mixed in a 96-well half-area black microplate (Greiner Bio-One, Frickenhausen, Germany) at 37 °C for 10 min. The enzymatic reaction was initiated by adding NADPH solution (40 µL, 500 µM) at 37 °C for 30 min. After 30 min of incubation, NaOH (30 µL, 2 mM) was added, and the reaction mixture was incubated at 37 °C for 2 h to induce fluorescent signals (final DMSO concentration, 0.5%; aromatase, 2 nM; and NADPH, 250 µM). Fluorescence was measured using a fluorescence microplate reader (SH-9000, CORONA […] Co., Ltd., Ibaraki, Japan) at an excitation wavelength of 435 nm and emission wavelength of 535 nm. Experiments were performed in triplicate, and the IC50 values were determined graphically.

[2] = target: T1, human recombinant aromatase; experiment: Kinetic analysis of inhibitory activity against human recombinant aromatase using Lineweaver-Burk plots (testosterone substrate, estradiol EIA); assay type: biochemical; settings: for Ki: testosterone 0.4–4 µM as substrate, secondary plot of Lineweaver–Burk, N = 3
Text: In the assay system, we fixed the enzyme concentration, changed the substrate concentration, and obtained the kinetic parameters of the enzyme-catalyzed reaction using Lineweaver–Burk double reciprocal plot 1/[V] vs. 1/[S]. The inhibition constant Ki indicates the potency of an inhibitor and equals the concentration required to produce half-maximal inhibition. The Ki value was obtained from the intersection of the secondary plot with the x-axis (apparent Km/Vmax vs. inhibitor).
Experiments were performed using a previously described protocol, modified by using various concentrations of testosterone (0.4–4 µM) as substrates instead of DBF and the plate was heated at 37 °C for 15 min. After the reaction, the enzyme was inactivated by heating in a boiling water bath for 2 min. An estradiol EIA kit (Oxford Biomedical Research, Inc., Oxford, MI, USA) was used to develop an estradiol standard curve to determine the concentration of estradiol produced and to correlate the concentration of estradiol with the reaction velocity. The mode of inhibition was analyzed using the Lineweaver–Burk plot of the inverse of the reaction velocity of estradiol plotted on the vertical axis and the inverse of the final concentration of the substrate on the horizontal axis, with and without the test substance (Figure S27).

| SMILES | IC50 [1] | Ki [2] | mode of inhibition of aromatase ([2]; Lineweaver–Burk plots) |
| --- | --- | --- | --- |
| CC[C@H](O)c1cc(=O)oc2c(C(=O)CC(C)C)c(O)c3c(c12)OC(C)(CCC=C(C)C)C=C3 (stereo partly drawn) [compound 10, Mammeasin E] | 11.1 µM | 7.1 µM |  |
| CC(C)CC(=O)c1c2c(c3oc(=O)cc(-c4ccccc4)c3c1O)CC(C(C)(C)O)O2 (stereo not drawn) [compound 39, Mammea A/AA cyclo F] | 9.2 µM | 4.3 µM |  |
| CCC(C)C(=O)c1c(O)c2c(c3c([C@@H](O)CC)cc(=O)oc13)OC(C)(CCC=C(C)C)C=C2 (stereo partly drawn) [compound 11, Mammeasin F] | 12.4 µM | 12.3 µM |  |
| C=C(C)c1cc2c(o1)c(C(=O)CC(C)C)c(O)c1c(-c3ccccc3)cc(=O)oc12 [compound 5, mammeasin O] | 9.1 µM | 2.3 µM | competitively inhibit; also recorded: competitive inhibition; also recorded: competitive inhibitors |
